Results on 11 molecules are retold here after PubChem BioAssay (NCI).

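Test compounds were applied to cells in 96-well plates for 48 hours at 5 doses. TGI: total growth inhibition.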

Test systems include SN12C renal; SK-MEL-2 melanoma; SNB-75 CNS; T-47D breast; NCI/ADR-RES ovarian; MOLT-4 leukemia; MDA-MB-435; TK-10 renal; OVCAR-4 ovarian; OVCAR-3 ovarian; UACC-62 melanoma; MALME-3M melanoma; RPMI-8226 leukemia; NCI-H226 lung; NCI-H460 lung; CCRF-CEM leukemia; MCF7 breast; HOP-92 NSCLC; RXF 393 renal; K-562 leukemia.
Experiment in all cases: DTP human tumour cell line panel, 48 h

For orientation: TGI means the concentration at which net growth stops. Higher therefore signals lower sensitivity of the cells. `CC1(C)N/C(=C\[N+](=O)[O-])C(C)(C)N1O`: the TGI with SN12C renal, in the experiment with SK-MEL-2 melanoma, with SNB-75 CNS, in the experiment on T-47D breast, in the experiment on NCI/ADR-RES ovarian and in the experiment on MOLT-4 leukemia was > 10 µM throughout. Besides, the TGI with MDA-MB-435, with TK-10 renal, in the experiment on OVCAR-4 ovarian, in the experiment with OVCAR-3 ovarian, in the experiment with UACC-62 melanoma and in the experiment on MALME-3M melanoma was > 10 µM each time. For the same molecule, the TGI in the experiment on RPMI-8226 leukemia, in the experiment on NCI-H226 lung, in the experiment with NCI-H460 lung, in the experiment on CCRF-CEM leukemia, with MCF7 breast and in the experiment with HOP-92 NSCLC was > 10 µM throughout. Besides, the TGI in the experiment with RXF 393 renal was > 10 µM.
Turning to `COc1ccc2c(c1)/C(=C\c1c(Cl)[nH]c3cc(C)c(OC)cc13)C(=O)N2`, the TGI was determined as 10.7 µM with SN12C renal; 18.5 µM in the experiment with SK-MEL-2 melanoma; 4.9 µM in the experiment with SNB-75 CNS; 40.5 µM in the experiment on T-47D breast; 27.7 µM in the experiment with K-562 leukemia; 4.04 µM in the experiment on NCI/ADR-RES ovarian. Further, the TGI came to 13.7 µM in the experiment on MOLT-4 leukemia; 0.596 µM with MDA-MB-435; 15.9 µM in the experiment with TK-10 renal; 16.2 µM with OVCAR-4 ovarian; 1.71 µM in the experiment with OVCAR-3 ovarian; 15.9 µM with UACC-62 melanoma. For the same molecule, the total growth inhibition concentration (TGI) in the experiment on MALME-3M melanoma was 19.2 µM; with RPMI-8226 leukemia it was 27.6 µM; in the experiment with NCI-H226 lung, > 100 µM; in the experiment on NCI-H460 lung, 8.7 µM; in the experiment on CCRF-CEM leukemia it was > 35.5 µM; in the experiment with MCF7 breast, 16.7 µM. In addition, the results for the TGI in the experiment with HOP-92 NSCLC and in the experiment with RXF 393 renal were 22.4 µM and 7.67 µM, respectively.
On to `O=C1OC(CCCN2CCCCC2)(c2ccccc2)CC12CCCC2` (stereo not given), for which the TGI in the experiment with SN12C renal is > 100 µM; with SK-MEL-2 melanoma it was > 100 µM; with SNB-75 CNS it was > 100 µM; with T-47D breast, > 100 µM; in the experiment with K-562 leukemia, > 96.3 µM; with NCI/ADR-RES ovarian, > 100 µM. Further, the total growth inhibition concentration (TGI) in the experiment with MOLT-4 leukemia, in the experiment on MDA-MB-435, in the experiment on TK-10 renal, in the experiment on OVCAR-4 ovarian, with OVCAR-3 ovarian and in the experiment on UACC-62 melanoma was > 100 µM in each case. Besides, the total growth inhibition concentration (TGI) was 55.7 µM in the experiment with MALME-3M melanoma; > 100 µM in the experiment with RPMI-8226 leukemia; > 100 µM in the experiment with NCI-H226 lung; > 100 µM with NCI-H460 lung; > 100 µM in the experiment with CCRF-CEM leukemia; > 100 µM with MCF7 breast. Besides, the TGI with HOP-92 NSCLC was > 90.8 µM; with RXF 393 renal it was > 100 µM.
Regarding `COc1ccc(/C=C2\N=C(N3CCCCC3)NC2=O)cc1`, the TGI in the experiment on SN12C renal, in the experiment on SK-MEL-2 melanoma, in the experiment on SNB-75 CNS, with T-47D breast, in the experiment on NCI/ADR-RES ovarian and in the experiment with MOLT-4 leukemia was > 100 µM in each case. Further, the TGI in the experiment on MDA-MB-435, in the experiment with TK-10 renal, in the experiment with OVCAR-4 ovarian, in the experiment with OVCAR-3 ovarian, in the experiment with UACC-62 melanoma and in the experiment on MALME-3M melanoma was > 100 µM in each case. Further, the TGI in the experiment on RPMI-8226 leukemia, in the experiment with NCI-H226 lung, with CCRF-CEM leukemia, in the experiment on MCF7 breast, in the experiment on HOP-92 NSCLC and with RXF 393 renal was > 100 µM each time.
For the molecule `C=CCn1c(N)c(C#N)c(C#N)c1CCC`, the TGI with SN12C renal, in the experiment on SK-MEL-2 melanoma, in the experiment with SNB-75 CNS, in the experiment on T-47D breast, with K-562 leukemia and in the experiment on NCI/ADR-RES ovarian was > 100 µM throughout. In addition, the TGI in the experiment on MOLT-4 leukemia, in the experiment with MDA-MB-435, in the experiment with TK-10 renal, in the experiment on OVCAR-4 ovarian, in the experiment on OVCAR-3 ovarian and in the experiment on UACC-62 melanoma was > 100 µM in each case. Moreover, the total growth inhibition concentration (TGI) in the experiment on MALME-3M melanoma, in the experiment with RPMI-8226 leukemia, in the experiment on NCI-H226 lung, with CCRF-CEM leukemia, with MCF7 breast and in the experiment on HOP-92 NSCLC was > 100 µM in each case. Besides, the total growth inhibition concentration (TGI) with RXF 393 renal is > 100 µM.
For the molecule `Nc1cc([N+](=O)[O-])ccc1C(=O)N1CCC[C@H]1CO`, the TGI in the experiment with SN12C renal, in the experiment with SK-MEL-2 melanoma, in the experiment on SNB-75 CNS, in the experiment with T-47D breast, with K-562 leukemia and in the experiment on NCI/ADR-RES ovarian was > 100 µM each time. Also, the TGI with MOLT-4 leukemia, in the experiment on MDA-MB-435, with TK-10 renal, in the experiment on OVCAR-4 ovarian, in the experiment on UACC-62 melanoma and with MALME-3M melanoma was > 100 µM each time. Moreover, the concentration for total growth inhibition (TGI) with RPMI-8226 leukemia, in the experiment on NCI-H226 lung, in the experiment with NCI-H460 lung, with CCRF-CEM leukemia, in the experiment on MCF7 breast and with HOP-92 NSCLC was > 100 µM each time. In the experiment with RXF 393 renal, the TGI is > 100 µM.
Consider `C#CCn1c(=O)c(I)cn(/C(=C/C(=O)OCC)C(=O)OCC)c1=O`, for which the concentration for total growth inhibition (TGI) is 32.3 µM with SN12C renal; 33 µM with SK-MEL-2 melanoma; 31.2 µM in the experiment with SNB-75 CNS; 2.28 µM in the experiment with T-47D breast; > 84 µM with NCI/ADR-RES ovarian; 1.9 µM in the experiment on MOLT-4 leukemia. In addition, the TGI was found to be 19.8 µM in the experiment with MDA-MB-435; 1.67 µM in the experiment with TK-10 renal; 21.4 µM in the experiment on OVCAR-4 ovarian; 3.37 µM in the experiment with OVCAR-3 ovarian; 10.5 µM in the experiment on UACC-62 melanoma; 4.27 µM with MALME-3M melanoma. Besides, the total growth inhibition concentration (TGI) was 2.33 µM with RPMI-8226 leukemia; 47.7 µM in the experiment with NCI-H226 lung; 49.8 µM with NCI-H460 lung; > 57.7 µM with CCRF-CEM leukemia; 6.16 µM with MCF7 breast; 3.37 µM with HOP-92 NSCLC. In the experiment with RXF 393 renal, this molecule had a TGI of 12.2 µM.
For the molecule `CC(C)CCNC(=O)c1ccc(CNC(=O)/C=C/c2cccc(Oc3ccccc3)c2)cc1`, the TGI in the experiment on SN12C renal is > 100 µM; in the experiment with SK-MEL-2 melanoma it was 72.5 µM; in the experiment on SNB-75 CNS it was > 100 µM; in the experiment on T-47D breast, > 100 µM; in the experiment with K-562 leukemia, > 100 µM; with NCI/ADR-RES ovarian it was > 100 µM. Also, the TGI is > 100 µM in the experiment with MOLT-4 leukemia; 41.6 µM in the experiment with MDA-MB-435; 96.9 µM in the experiment on TK-10 renal; > 100 µM in the experiment with OVCAR-4 ovarian; 93 µM in the experiment with OVCAR-3 ovarian; 71.1 µM with UACC-62 melanoma. Also, the TGI in the experiment with MALME-3M melanoma, with RPMI-8226 leukemia, in the experiment with NCI-H226 lung, in the experiment with NCI-H460 lung, in the experiment with MCF7 breast and in the experiment with HOP-92 NSCLC was > 100 µM in each case. This molecule also came in with a total growth inhibition concentration (TGI) in the experiment with RXF 393 renal of 52 µM.
For `C/C(=N\NS(=O)(=O)c1ccc(C)cc1)c1ccccn1`, the TGI in the experiment on SK-MEL-2 melanoma, with SNB-75 CNS, with T-47D breast, in the experiment with K-562 leukemia, in the experiment on NCI/ADR-RES ovarian and with MOLT-4 leukemia was > 100 µM each time. In addition, the TGI with MDA-MB-435, in the experiment with TK-10 renal, in the experiment on OVCAR-4 ovarian, with OVCAR-3 ovarian, in the experiment on UACC-62 melanoma and with MALME-3M melanoma was > 100 µM in each case. In addition, the total growth inhibition concentration (TGI) is > 100 µM in the experiment on RPMI-8226 leukemia; > 100 µM in the experiment on NCI-H226 lung; > 100 µM in the experiment with NCI-H460 lung; 78.9 µM in the experiment on CCRF-CEM leukemia; > 100 µM with MCF7 breast; > 100 µM with HOP-92 NSCLC. Further, in the experiment on RXF 393 renal, the TGI is > 100 µM.
Take `O=c1oc2ccccc2c(Nc2ccc3c(c2)Sc2ccccc2O3)c1[N+](=O)[O-]`: the total growth inhibition concentration (TGI) in the experiment on SN12C renal is > 100 µM; in the experiment on SK-MEL-2 melanoma, 54.7 µM; in the experiment with SNB-75 CNS, 58.3 µM; in the experiment with T-47D breast, 69.7 µM; in the experiment with K-562 leukemia it was 57.9 µM; in the experiment with NCI/ADR-RES ovarian, > 100 µM. In addition, the total growth inhibition concentration (TGI) in the experiment with MDA-MB-435 is > 100 µM; in the experiment with TK-10 renal, 53.9 µM; in the experiment on OVCAR-4 ovarian, > 100 µM; in the experiment with OVCAR-3 ovarian, 47.5 µM; with UACC-62 melanoma it was > 100 µM; in the experiment on MALME-3M melanoma, 65.7 µM. The total growth inhibition concentration (TGI) in the experiment on RPMI-8226 leukemia was found to be 37.8 µM; with NCI-H226 lung it was 76.5 µM; in the experiment on NCI-H460 lung it was 55.3 µM; with CCRF-CEM leukemia, 81 µM; in the experiment with MCF7 breast it was 43 µM; with HOP-92 NSCLC, 71.2 µM. For the same molecule, the total growth inhibition concentration (TGI) in the experiment with RXF 393 renal amounted to 61.9 µM.
On to `CCCCCCNCCc1cnc[nH]1`, for which the TGI in the experiment on SN12C renal, with SK-MEL-2 melanoma, in the experiment on SNB-75 CNS, in the experiment with T-47D breast, with K-562 leukemia and in the experiment on NCI/ADR-RES ovarian was > 100 µM each time. For the same molecule, the total growth inhibition concentration (TGI) in the experiment with MOLT-4 leukemia, in the experiment on MDA-MB-435, in the experiment with OVCAR-4 ovarian, with OVCAR-3 ovarian, in the experiment on UACC-62 melanoma and in the experiment with MALME-3M melanoma was > 100 µM each time. Also, the concentration for total growth inhibition (TGI) with RPMI-8226 leukemia, in the experiment on NCI-H226 lung, in the experiment with NCI-H460 lung, with CCRF-CEM leukemia, with MCF7 breast and in the experiment with HOP-92 NSCLC was > 100 µM in each case. Further, in the experiment with RXF 393 renal, the TGI is > 100 µM.
